pIC50: −log10 of the molar value.
Target: T1, Fatty-acid amide hydrolase 1 (Homo sapiens, UniProt O00519)
T1 sequence (O00519 whole entry): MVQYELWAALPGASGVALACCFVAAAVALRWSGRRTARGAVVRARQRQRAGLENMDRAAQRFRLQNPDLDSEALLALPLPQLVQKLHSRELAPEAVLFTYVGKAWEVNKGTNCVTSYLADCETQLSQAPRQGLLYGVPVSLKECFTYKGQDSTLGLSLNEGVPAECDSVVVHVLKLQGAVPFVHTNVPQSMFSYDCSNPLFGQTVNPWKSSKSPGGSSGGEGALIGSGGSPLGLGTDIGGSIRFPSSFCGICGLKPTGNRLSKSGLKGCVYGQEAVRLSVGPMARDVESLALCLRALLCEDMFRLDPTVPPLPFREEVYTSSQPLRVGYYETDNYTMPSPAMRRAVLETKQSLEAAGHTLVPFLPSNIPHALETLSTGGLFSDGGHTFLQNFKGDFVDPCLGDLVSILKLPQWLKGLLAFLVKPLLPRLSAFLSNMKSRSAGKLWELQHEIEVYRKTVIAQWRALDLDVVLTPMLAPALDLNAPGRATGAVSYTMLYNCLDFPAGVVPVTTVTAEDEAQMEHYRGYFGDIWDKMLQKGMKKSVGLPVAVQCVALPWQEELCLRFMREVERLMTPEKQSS
Assay: Measuring FAAH Inhibition Potency
Procedure: MAGL inhibitor compounds were also counter-screened for FAAH inhibition potency using the following assay. Assessment of FAAH inhibition was performed using Fatty Acid Amide Hydrolase Inhibitor Screening Assay Kit (Cayman Item No. 10005196) following manufacture's instruction with some modifications. The kit utilizes human recombinant FAAH and the fluorescent substrate, AMC Arachidonoyl amide (AAMCA). 5 μL of assay buffer (125 mM Tris, pH 9.0, 1 mM EDTA, i.e. ethylenediaminetetraacetic acid) was added to a 384-well black plate (Corning, 3573). Test compounds and control inhibitor JZL-195 (Cayman Chemical, 13668) were tested in 10-concentration IC50 mode with 3-fold serial dilution at a starting concentration of 100 μM and 10 μM, respectively. 300 nL or 30 nL of test compounds were delivered into a 384-well black plate (Corning, 3573) using a Labcyte Echo, followed by addition of 15 μL of FAAH enzyme (Cayman, 700302) in assay buffer. After a 5-minute pre-incubation at room temperature, 10 μL of AAMCA was added in assay buffer to start the reaction. Final concentration of FAAH enzyme is not specified and AAMCA substrate was used at the 20 uM. […] The reaction was allowed to progress for 60 minutes, while the plate was read on an Envision plate reader at an Ex/Em of 350/460 nm with readings every minute. The data was analyzed in Microsoft Excel, using the slope between 30 and 59 minutes. […]

- pIC50: < 5.00
Compound: Cc1cc(C2=CC3(C2)CN(C(=O)c2cc(O)ccc2F)C3)n(-c2ccccc2C)n1 [US20240308985, Compound 120]

From BindingDB's records for patent US20240308985 (Psy Therapeutics, 2024)
